Some test systems named below: SF-295; UO-31; SK-MEL-2; TK-10; HOP-62; M19-MEL; COLO 205; HL-60; KM12; NCI-H460; OVCAR-4; UACC-62; CAKI-1; HCT-15; NCI-H522; K562; SR; SF-539.
Experiment in all cases: DTP human tumour cell line panel, 48 h

Each structure is given as a SMILES string.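 Growth conditions: 96-well plates. Treatment: test compound, 48 hours, 5 concentrations. Analysis: linear interpolation between bracketing concentrations; unreached endpoints set to highest concentration. GI50: concentration for 50% inhibition of growth.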 Calls of active or inactive are those of the source. No stated cut-off is given here; in the data, active = GI50 up to about 1.1 µM and inactive = higher. A value given as a limit tells only on which side of the number the result lay.

For the molecule `NC(=S)N/N=C(/CC(=O)c1ccc([N+](=O)[O-])cc1)C(=O)Nc1ncc([N+](=O)[O-])s1`, the GI50 in the assay on SF-295, in the assay with UO-31, with SK-MEL-2, with TK-10, in the assay on HOP-62 and in the assay on M19-MEL was > 100 µM (inactive) each time. The GI50 with COLO 205 is > 100 µM (inactive); with HL-60, 45.2 µM (inactive); in the assay on KM12, > 100 µM (inactive); in the assay with NCI-H460, > 100 µM (inactive); with OVCAR-4 it was > 100 µM (inactive); in the assay with UACC-62, 52.7 µM (inactive).
Turning to `O=C(O)c1cc(=O)c2c([nH]c3ccccc32)s1`, the GI50 in the assay on SF-295, in the assay with UO-31, with SK-MEL-2, in the assay with TK-10, in the assay on HOP-62 and in the assay on M19-MEL was > 100 µM (inactive) each time. Further, the GI50 in the assay with COLO 205 is > 100 µM (inactive); in the assay with CAKI-1, > 100 µM (inactive); in the assay with HCT-15, more than 100 µM; in the assay with HL-60, > 100 µM (inactive); in the assay on NCI-H522, > 100 µM (inactive); in the assay on KM12, > 100 µM (inactive). The GI50 in the assay with NCI-H460, in the assay with OVCAR-4, with UACC-62 and in the assay on K562 was > 100 µM (inactive) each time.
Turning to `N#Cc1ccc(C2OCC3CC=CCC3CO2)cc1` (stereo not given), the GI50 was 48.1 µM (inactive) with SF-295; > 100 µM (inactive) in the assay on UO-31; 36.1 µM (inactive) in the assay with SR; > 100 µM (inactive) in the assay with SK-MEL-2; > 100 µM (inactive) in the assay on HOP-62; 84.7 µM (inactive) in the assay on M19-MEL. Moreover, the GI50 in the assay on COLO 205 was 80.9 µM (inactive); with CAKI-1, > 100 µM (inactive); with HCT-15, 61.2 µM; in the assay with HL-60, 30.7 µM (inactive); with NCI-H522 it was 18.9 µM (inactive); with KM12, 61.4 µM (inactive). Also, the GI50 in the assay with NCI-H460 was 68.7 µM (inactive); in the assay on OVCAR-4 it was > 100 µM (inactive); with SF-539 it was > 100 µM (inactive); in the assay on UACC-62, 80.7 µM (inactive); with K562 it was 30.9 µM (inactive).
As to `CC(C)N(C(=O)C1(C)CC1)C(C)C`, the GI50 with SF-295, in the assay on UO-31, with SK-MEL-2, in the assay with HOP-62, with M19-MEL and in the assay with COLO 205 was > 100 µM (inactive) each time. The GI50 with CAKI-1 was > 100 µM (inactive); with HCT-15, more than 100 µM; in the assay on HL-60, > 100 µM (inactive); in the assay on NCI-H522 it was > 100 µM (inactive); with KM12, > 100 µM (inactive); in the assay with OVCAR-4, > 100 µM (inactive). Further, the GI50 with SF-539, with UACC-62 and with K562 was > 100 µM (inactive) throughout.
Consider `COC(=O)CC(=O)NCC1=CCC(=O)CC1`, for which the GI50 in the assay on SF-295, in the assay with UO-31, in the assay with SK-MEL-2, in the assay on TK-10, in the assay on HOP-62 and in the assay on M19-MEL was > 100 µM (inactive) each time. The GI50 in the assay on COLO 205 is > 100 µM (inactive); in the assay on CAKI-1, > 100 µM (inactive); in the assay on HCT-15, more than 100 µM; in the assay on HL-60, > 100 µM (inactive); with NCI-H522 it was > 100 µM (inactive); with KM12 it was > 100 µM (inactive). For the same molecule, the GI50 in the assay with NCI-H460, in the assay with OVCAR-4, in the assay on SF-539, in the assay on UACC-62 and in the assay on K562 was > 100 µM (inactive) throughout.
With `O=C1C2=C(c3ccccc31)C(c1cccc(Cl)c1)NC(S)=N2` (stereo not given), the GI50 was > 100 µM (inactive) with SF-295; 46.2 µM (inactive) in the assay on UO-31; > 100 µM (inactive) in the assay with SK-MEL-2; > 100 µM (inactive) in the assay on TK-10; > 100 µM (inactive) with HOP-62; > 100 µM (inactive) with M19-MEL. Further, the GI50 in the assay with COLO 205 is > 100 µM (inactive); in the assay with CAKI-1 it was 75.2 µM (inactive); with HCT-15, more than 100 µM; with HL-60, > 100 µM (inactive); with NCI-H522, > 100 µM (inactive); in the assay with KM12, 45.9 µM (inactive). Moreover, the GI50 was > 100 µM (inactive) in the assay with NCI-H460; 76.7 µM (inactive) in the assay with OVCAR-4; > 100 µM (inactive) in the assay on SF-539; > 100 µM (inactive) in the assay with UACC-62; > 100 µM (inactive) with K562.
As for `CC(C(=O)Oc1ccc2ccccc2c1-c1c(O)ccc2ccccc12)c1ccccc1` (stereo not given), the GI50 with SF-295 is 12.7 µM (inactive); with UO-31, 1.37 µM (inactive); with SK-MEL-2, 15.1 µM (inactive); with TK-10, 17.6 µM (inactive); with HOP-62, 15.5 µM (inactive); with M19-MEL, 15.5 µM (inactive). The GI50 with COLO 205 is 17.1 µM (inactive); with CAKI-1, 11.5 µM (inactive); in the assay with HCT-15 it was 12.5 µM; with HL-60 it was 13.2 µM (inactive); with NCI-H522, > 10 µM (inactive); in the assay on KM12 it was 11.4 µM (inactive). Besides, the GI50 with NCI-H460 is 13.7 µM (inactive); in the assay on OVCAR-4 it was 10.9 µM (inactive); in the assay on SF-539 it was 16.3 µM (inactive); with UACC-62, 13 µM (inactive); in the assay with K562 it was 15 µM (inactive).
With `C[P+](C)(C)C`, the GI50 with SF-295, in the assay with UO-31, in the assay on SR, with SK-MEL-2, in the assay with TK-10 and in the assay with HOP-62 was > 100 µM (inactive) each time. For the same molecule, the GI50 with M19-MEL is > 100 µM (inactive); with COLO 205, > 100 µM (inactive); in the assay on CAKI-1, > 100 µM (inactive); in the assay on HCT-15, more than 100 µM; with HL-60 it was > 100 µM (inactive); with KM12, > 100 µM (inactive). In addition, the GI50 in the assay on NCI-H460, with OVCAR-4, in the assay with SF-539, with UACC-62 and in the assay on K562 was > 100 µM (inactive) throughout.
In the case of `CC1=C[C@H]2C[C@@]3(C)O[C@@H]([C@]4(C)CC[C@H]([C@@H](C)C(=O)O)OO4)CC3C(C)(C)[C@H]2CC1` (stereo not given in full), the GI50 in the assay with SF-295 was 2.01 µM (inactive); in the assay with UO-31, 1.2 µM (inactive); in the assay on SK-MEL-2 it was 1.71 µM (inactive); in the assay on TK-10, 2.79 µM (inactive); in the assay with HOP-62, 2.22 µM (inactive); with M19-MEL, 1.67 µM (inactive). The GI50 in the assay on COLO 205 is 1.44 µM (inactive); with CAKI-1, 1.49 µM (inactive); with HL-60 it was 0.114 µM (active); in the assay with NCI-H522, 0.331 µM (active); with KM12 it was 0.397 µM (active); with NCI-H460 it was 1.13 µM (inactive). Also, the values for the GI50 with OVCAR-4 and with SF-539 were 1.5 µM (inactive) and 1.94 µM (inactive), respectively.
Regarding `CC(=O)C1C(=O)NC(=O)C1=O` (stereo not given), the GI50 with SF-295, in the assay with UO-31, with SK-MEL-2, in the assay with TK-10, in the assay with HOP-62 and in the assay on M19-MEL was > 100 µM (inactive) throughout. Also, the GI50 in the assay with COLO 205 was > 100 µM (inactive); in the assay with CAKI-1 it was > 100 µM (inactive); in the assay with HCT-15 it was more than 100 µM; in the assay on NCI-H522, > 100 µM (inactive); with KM12, > 100 µM (inactive); in the assay with NCI-H460, > 100 µM (inactive). In addition, the GI50 in the assay with OVCAR-4, with SF-539, in the assay on UACC-62 and with K562 was > 100 µM (inactive) each time.
Regarding `COc1cc2c3c(c1OC)-c1c(ccc4c1OCO4)CC3(C#N)N(C(=O)c1ccccc1)CC2` (stereo not given), the GI50 is 41.4 µM (inactive) with SF-295; 99.8 µM (inactive) with UO-31; > 100 µM (inactive) in the assay with SR; > 100 µM (inactive) in the assay with TK-10; 38.5 µM (inactive) in the assay on HOP-62; 67.6 µM (inactive) with M19-MEL. Further, the GI50 in the assay with COLO 205 was > 100 µM (inactive); in the assay with CAKI-1 it was 36.6 µM (inactive); with HCT-15, 39.7 µM; with HL-60 it was > 100 µM (inactive); in the assay with NCI-H522, > 100 µM (inactive); in the assay on KM12, > 100 µM (inactive). Besides, the GI50 with NCI-H460 was 98.9 µM (inactive); in the assay on OVCAR-4, 21 µM (inactive); in the assay on SF-539 it was 28.1 µM (inactive); in the assay with UACC-62, 42 µM (inactive); in the assay with K562, 54.6 µM (inactive).
Take `CC1=C(C(=O)Nc2ccc([N+](=O)[O-])cc2)C(c2ccco2)C(C(=O)Nc2ccc([N+](=O)[O-])cc2)=C(C)N1`: the GI50 with SF-295 was 28.1 µM (inactive); in the assay with UO-31, 7.24 µM (inactive); in the assay on SK-MEL-2, 7.52 µM (inactive); with TK-10 it was 12.3 µM (inactive); in the assay with HOP-62, 10 µM (inactive); with M19-MEL, 13.1 µM (inactive). In addition, the GI50 was 15.8 µM (inactive) with COLO 205; 20.3 µM (inactive) in the assay with CAKI-1; 5.18 µM (inactive) in the assay with HL-60; 12.4 µM (inactive) with NCI-H522; 6.41 µM (inactive) with KM12; 20.1 µM (inactive) in the assay with NCI-H460. Further, the figures for the GI50 in the assay on OVCAR-4, in the assay with SF-539 and with K562 were 3.88 µM (inactive), 16.5 µM (inactive) and 6.37 µM (inactive), respectively.
As for `CCCCCCCCCCCCCC(=O)OCC1OC(=O)C(O)C1O` (stereo not given), the GI50 was 88.7 µM (inactive) in the assay on SF-295; > 100 µM (inactive) in the assay with UO-31; > 100 µM (inactive) in the assay with SR; > 100 µM (inactive) in the assay with TK-10; > 100 µM (inactive) in the assay on HOP-62; > 100 µM (inactive) in the assay on M19-MEL. The GI50 in the assay on COLO 205, in the assay on CAKI-1, with HL-60, in the assay with NCI-H522, in the assay on KM12 and in the assay on OVCAR-4 was > 100 µM (inactive) throughout. The GI50 in the assay on SF-539 is > 100 µM (inactive); in the assay on UACC-62, > 100 µM (inactive); with K562 it was 73.8 µM (inactive).

The GI50 is the concentration giving 50% growth inhibition.

(Values after ChEMBL document CHEMBL1201862, “PubChem BioAssay data set” (2004).)
